Measurements as given in patent US10538580B2, “Anti-equol antibody composition and use therefor” (HEALTHCARE SYSTEMS CO., LTD., priority 2016, dated 2020).

Test system: anti-equol monoclonal antibody composition
Test: Evaluating cross-reactivity of anti-equol monoclonal antibody composition
Assay type: binding, mouse
Settings: for Cross-reactivity with S-equol (%): S-equol as 100%; for S-equol concentration calculated from the calibration curve: reacted with the antibody, read from S-equol calibration curve
Procedure: The cross-reactivity rate can be obtained as follows for example. First, a calibration curve is prepared using S-equol. Compounds including S-equol are prepared with concentrations of 1 μM and 10 μM, and reacted with the antibody at each concentration, and the S-equol concentration is calculated from the calibration curve. For example, if 10 μM of daidzein is added and detected at a concentration of 10 μM based on the calibration curve the cross-reactivity is given as 100%, while if it is detected at a concentration of 1 μM the cross-reactivity is given as 10%, and if it is detected at a concentration of 0.1 μM the cross-reactivity is given as 1%. To investigate the cross-reactivity of the resulting antibody composition, reactivity to 9 kinds of compounds including S-equol (S-equol, daidzein, genistein, glycitein, ellagic acid dihydrate, catechin monohydrate, gallic acid, apigenin and DMA) was investigated. First, a calibration curve was prepared using S-equol. The 9 compounds including S-equol were prepared at concentrations of 1 μM and 10 μM, and reacted with the antibody at each concentration, and cross-reactivity was calculated from the calibration curve.

Molecule | Cross-reactivity with S-equol (%) (compound at 1 μM) | Cross-reactivity with S-equol (%) (compound at 10 μM) | S-equol concentration calculated from the calibration curve (compound prepared at 1 μM) | S-equol concentration calculated from the calibration curve (compound prepared at 10 μM)
O=c1cc(-c2ccc(O)cc2)oc2cc(O)cc(O)c12 [Apigenin, apigenin] | 0.00% | 0.00% | 0.00 | 0.00
O=c1c(-c2ccc(O)cc2)coc2cc(O)ccc12 [Daidzein, daidzein] | 0.00% | 0.00% | 0.00 | 0.00
O=c1oc2c(O)c(O)cc3c(=O)oc4c(O)c(O)cc1c4c23 [Ellagic acid dihydrate, ellagic acid dihydrate] | 0.00% | 0.00% | 0.00 | 0.00
O=C(O)c1cc(O)c(O)c(O)c1 [Gallic acid, gallic acid] | 0.00% | 0.74% | 0.00 | 0.08
O=c1c(-c2ccc(O)cc2)coc2cc(O)cc(O)c12 [Genistein, genistein] | 0.00% | 0.00% | 0.00 | 0.00
COc1cc2c(=O)c(-c3ccc(O)cc3)coc2cc1O [Glycitein, glycitein] | 0.00% | 0.00% | 0.00 | 0.00
Oc1ccc([C@@H]2COc3cc(O)ccc3C2)cc1 [R-Equol, R-equol] | 89.55% | 109.59% | 1.20 | 11.88
C[C@@H](C(=O)c1ccc(O)cc1O)c1ccc(O)cc1 [R—O-DMA, R—O-desmethylangolensin] | 0.00% | 0.00% | 0.00 | 0.00
Oc1ccc([C@H]2COc3cc(O)ccc3C2)cc1 [S-Equol, S-equol] | 100.00% | 100.00% | 1.34 | 10.84
(+)-Catechin hydrate | 0.00% | 0.09% | 0.00 | 0.01
